Laboratory results reported in patent publication US11629118B2, “Formulations with improved stability” (INSPIRNA, INC., priority 2017, dated 2023).
Converted amounts (≈) assume the structure as drawn.

Tests used:
[1] = Solubility study of Compound (II) in lipid excipients and surfactants; format: physicochemical; conditions: for solubility: thermodynamic from solid
Protocol: Compound (II) HCl and Compound (II) free base was weighed into vials and the appropriate amount of excipient was added to achieve the desired concentration. Heating and sonication was used, if necessary, to achieve clear solutions. Limits of solubility of Compound (II) free base and Compound (II) HCl (amorphous form) are noted in Table 1.

[2] = Further solubility study in Maisine 35-1:Gelucire 44/14:Lauroglycol 90 mixtures; conditions: 40-80% (w/w) Maisine 35-1; 20-40% Gelucire 44/14; 0-20% Lauroglycol 90
Protocol: (§1) A further solubility study of Compound (II) was conducted using lipid excipients and surfactants. Maisine 35-1 (glycerol linoleates):Gelucire 44/14 (lauroyl macrogol-32 glycerides):Lauroglycol 90 (propylene glycol monolaurate) mixtures were tested to explore the optimal combination. The following ranges of each substance were tested: (1) 40-80% (w/w) Maisine 35-1; (2) 20-40% (w/w) Gelucire 44/14; and (3) 0-20% (w/w) Lauroglycol 90.

[3] = Binary stressed-stability / compatibility study with excipients; format: physicochemical; conditions: in contact with Maisine 35-1 and Gelucire 44/14 (70:30 w/w)
Text: The compatibility of Compound ([…]) with the following solubilizing/emulsifying excipients: Maisine 35-1; Gelucire 44/14; sodium oleate; sodium stearate; vitamin E TPGS; lysine; and sodium EDTA.

physchem = conditions: oil or lipid
Protocol: as §1

In the case of C[C@H](CCOc1cccc(CC(=O)O)c1)N(Cc1cccc(C(F)(F)F)c1Cl)CC(c1ccccc1)c1ccccc1.Cl [Compound (II) HCl salt], the “Limit of solubility in Capmul MCM” value ([1]; excipient Capmul MCM) is reported as 50 mg/mL, the “Limit of solubility in Capryol 90” value ([1]; excipient Capryol 90) is reported as 150 mg/mL and the “Limit of solubility in Capryol PGMC” value ([1]; excipient Capryol PGMC) is reported as 150 mg/mL. The “Limit of solubility in Cremophor EL” value ([1]; excipient Cremophor EL) was 150 mg/mL, the “Limit of solubility in Cremophor RH-40” value ([1]; excipient Cremophor RH-40) was 150 mg/mL and the “Limit of solubility in Ethanol” value ([1]; excipient Ethanol) was 200 mg/mL. The “Limit of solubility in Gelucire 44/14” value ([1]; excipient Gelucire 44/14) was 100 mg/mL, the “Limit of solubility in Gelucire 50/13” value ([1]; excipient Gelucire 50/13) was 50 mg/mL and the “Limit of solubility in Labrafil M 1944 CS” value ([1]; excipient Labrafil M 1944 CS) was 25 mg/mL. The “Limit of solubility in Labrafil M 2125 CS” value ([1]; excipient Labrafil M 2125 CS) was 25 mg/mL, the “Limit of solubility in Labrafil M 2130 CS” value ([1]; excipient Labrafil M 2130 CS) was 25 mg/mL and the “Limit of solubility in Labrasol” value ([1]; excipient Labrasol) was 150 mg/mL. For the same compound, the “Limit of solubility in Lauroglycol 90” value ([1]; excipient Lauroglycol 90) was 150 mg/mL, the “Limit of solubility in Lauroglycol FCC” value ([1]; excipient Lauroglycol FCC) was 100 mg/mL and the “Limit of solubility in Maisine 35-1” value ([1]; excipient Maisine 35-1) was 150 mg/mL. For the same compound, the “Limit of solubility in PEG-200” value ([1]; excipient PEG-200) was 200 mg/mL, the “Limit of solubility in PEG-300” value ([1]; excipient PEG-300) was 200 mg/mL and the “Limit of solubility in PEG-400” value ([1]; excipient PEG-400) was 200 mg/mL. For the same compound, the “Limit of solubility in Peceol” value ([1]; excipient Peceol) was 150 mg/mL, the “Limit of solubility in Phosal 50-PG” value ([1]; excipient Phosal 50-PG) was 200 mg/mL and the “Limit of solubility in Phosal 53 MCT” value ([1]; excipient Phosal 53 MCT) was 150 mg/mL. The “Limit of solubility in Plurol Oleique CC 497” value ([1]; excipient Plurol Oleique CC 497) was 50 mg/mL, the “Limit of solubility in Propylene Glycol” value ([1]; excipient Propylene Glycol) was 200 mg/mL and the “Limit of solubility in Transcutol” value ([1]; excipient Transcutol) was 150 mg/mL. The “Limit of solubility in Tween-20” value ([1]; excipient Tween-20) was 200 mg/mL, the “Limit of solubility in Tween-80” value ([1]; excipient Tween-80) was 200 mg/mL and the “Limit of solubility in VitE-TPGS” value ([1]; excipient VitE-TPGS) was 150 mg/mL. For the same compound, the “Solubility in Maisine 35-1:Gelucire 44/14:Lauroglycol 90 mixtures” value [2] was 150 to 200 mg/mL.

C[C@H](CCOc1cccc(CC(=O)O)c1)N(Cc1cccc(C(F)(F)F)c1Cl)CC(c1ccccc1)c1ccccc1 [Compound (II), 2-{3-[(3R)-3-({[2-chloro-3-(trifluoromethyl)phenyl]methyl}(2,2-diphenylethyl)amino)butoxy]phenyl}acetic acid] showed a solubility ([1]; aqueous with cosolvent or surfactant or cyclodextrin, excipient Tween-20, read-out: Limit of solubility in Tween-20) of over 200 mg/mL, a solubility ([1]; aqueous with cosolvent or surfactant or cyclodextrin, excipient Tween-80, read-out: Limit of solubility in Tween-80) of over 200 mg/mL and a solubility ([1]; aqueous with cosolvent or surfactant or cyclodextrin, excipient VitE-TPGS, read-out: Limit of solubility in VitE-TPGS) of over 200 mg/mL. For the same compound, the solubility ([1]; oil or lipid, excipient Capryol 90, read-out: Limit of solubility in Capryol 90) was over 200 mg/mL, the solubility ([1]; oil or lipid, excipient Capryol PGMC, read-out: Limit of solubility in Capryol PGMC) was over 200 mg/mL and the solubility ([1]; oil or lipid, excipient Cremophor EL, read-out: Limit of solubility in Cremophor EL) was over 200 mg/mL. The solubility ([1]; oil or lipid, excipient Cremophor RH-40, read-out: Limit of solubility in Cremophor RH-40) was over 200 mg/mL, the solubility ([1]; oil or lipid, excipient Gelucire 44/14, read-out: Limit of solubility in Gelucire 44/14) was over 200 mg/mL and the solubility ([1]; oil or lipid, excipient Gelucire 50/13, read-out: Limit of solubility in Gelucire 50/13) was 150 mg/mL (≈ 252 mM). For the same compound, the solubility ([1]; oil or lipid, excipient Labrafac Lipo WL 1349, heating and sonication if necessary, read-out: Limit of solubility in Labrafac Lipo WL 1349) was over 200 mg/mL, the solubility ([1]; oil or lipid, excipient Labrafac PG, read-out: Limit of solubility in Labrafac PG) was over 200 mg/mL and the solubility ([1]; oil or lipid, excipient Labrafil M 1944 CS, read-out: Limit of solubility in Labrafil M 1944 CS) was over 200 mg/mL. For the same compound, the solubility ([1]; oil or lipid, excipient Labrafil M 2125 CS, read-out: Limit of solubility in Labrafil M 2125 CS) was over 200 mg/mL, the solubility ([1]; oil or lipid, excipient Labrafil M 2130 CS, read-out: Limit of solubility in Labrafil M 2130 CS) was over 200 mg/mL and the solubility ([1]; oil or lipid, excipient Labrasol, read-out: Limit of solubility in Labrasol) was over 200 mg/mL. For the same compound, the solubility ([1]; oil or lipid, excipient Lauroglycol 90, read-out: Limit of solubility in Lauroglycol 90) was over 200 mg/mL, the solubility ([1]; oil or lipid, excipient Lauroglycol FCC, read-out: Limit of solubility in Lauroglycol FCC) was over 200 mg/mL and the solubility ([1]; oil or lipid, excipient Maisine 35-1, read-out: Limit of solubility in Maisine 35-1) was over 200 mg/mL. For the same compound, the solubility ([1]; oil or lipid, excipient Peceol, read-out: Limit of solubility in Peceol) was over 200 mg/mL, the solubility ([1]; oil or lipid, excipient Phosal 50-PG, read-out: Limit of solubility in Phosal 50-PG) was over 200 mg/mL and the solubility ([1]; oil or lipid, excipient Phosal 53 MCT, read-out: Limit of solubility in Phosal 53 MCT) was over 200 mg/mL. The solubility ([1]; oil or lipid, excipient Plurol Oleique CC 497, read-out: Limit of solubility in Plurol Oleique CC 497) was over 200 mg/mL, the solubility ([1]; organic solvent or mixture, excipient Ethanol, read-out: Limit of solubility in Ethanol) was over 200 mg/mL and the solubility ([1]; organic solvent or mixture, excipient PEG-200, read-out: Limit of solubility in PEG-200) was over 200 mg/mL. The solubility ([1]; organic solvent or mixture, excipient PEG-300, read-out: Limit of solubility in PEG-300) was over 200 mg/mL, the solubility ([1]; organic solvent or mixture, excipient PEG-400, read-out: Limit of solubility in PEG-400) was over 200 mg/mL and the solubility ([1]; organic solvent or mixture, excipient Propylene Glycol, read-out: Limit of solubility in Propylene Glycol) was over 200 mg/mL. For the same compound, the solubility ([1]; organic solvent or mixture, excipient Transcutol, read-out: Limit of solubility in Transcutol) was over 200 mg/mL, the Degradation ([3]; after 15 days of storage at −20° C.) was “No significant degradation” and the Short-term stability ([3]; room temperature (about 20° C.) for 8 days) was “acceptable”. The Degradation ([3]; room temperature, by 15 days) was “approximately 9%” and the solubility (physchem) was over 250 mg/mL.
